# Measured values taken from DBAASP.
# How the values were obtained:
# Assay in all cases: ≥ marks a high value that may be exact or a test limit, other limits are often not marked, values filed in µg/mL are converted to µM
# [1] = tested on: Aeromonas salmonicida 97-4
# [2] = tested on: Aeromonas salmonicida 99-1
# Candida albicans C627 = tested on: Candida albicans C627
# [3] = tested on: Escherichia coli CGSC 4908
# Escherichia coli DC2 = tested on: Escherichia coli DC2
# Escherichia coli UB1005 = tested on: Escherichia coli UB1005
# [4] = tested on: Pseudomonas aeruginosa K799
# [5] = tested on: Pseudomonas aeruginosa Z61
# [6] = tested on: Salmonella enterica serovar typhimurium MS7953s
# [7] = tested on: Salmonella enterica subsp. enterica serovar Typhimurium ATCC 14028s
# [8] = tested on: Staphylococcus aureus C623
# [9] = tested on: Staphylococcus epidermidis C621
# [10] = tested on: Zymomonas mobilis ATCC 10988
# Bacillus cereus = tested on: Bacillus cereus
# Escherichia coli = tested on: Escherichia coli
# Leuconostoc lactis = tested on: Leuconostoc lactis
# Listeria innocua = tested on: Listeria innocua
# Micrococcus luteus = tested on: Micrococcus luteus
# Pasteurella multocida = tested on: Pasteurella multocida
# Staphylococcus aureus = tested on: Staphylococcus aureus
# [11] = tested on: Staphylococcus epidermidis
# Streptococcus uberis = tested on: Streptococcus uberis
# [12] = tested on: Aspergillus oryzae NBRC 100959
# [13] = tested on: Candida viswanathii NBRC 10321
# [14] = tested on: Escherichia coli NBRC 3972
# [15] = tested on: Micrococcus luteus NBRC 3333
# [16] = tested on: Staphylococcus epidermidis NBRC 12993
# [17] = tested on: Escherichia coli ATCC 25922
# Escherichia coli K88 = tested on: Escherichia coli K88
# Escherichia coli K99 = tested on: Escherichia coli K99
# [18] = tested on: Lacticaseibacillus rhamnosus 1.0385
# [19] = tested on: Lacticaseibacillus rhamnosus 1.0911
# [20] = tested on: Lacticaseibacillus rhamnosus 1.0936
# [21] = tested on: Lacticaseibacillus rhamnosus 7469
# [22] = tested on: Lactiplantibacillus plantarum 8014
# [23] = tested on: Pseudomonas aeruginosa ATCC 27853
# [24] = tested on: Salmonella enterica subsp. enterica serovar Pullorum C79-13
# [25] = tested on: Salmonella enterica subsp. enterica serovar Typhimurium ATCC 14028
# [26] = tested on: Salmonella enterica subsp. enterica serovar Typhimurium C77-31
# [27] = tested on: Staphylococcus aureus ATCC 25923
# [28] = tested on: Staphylococcus aureus ATCC 43300
# [29] = tested on: Bacillus subtilis DSM 347
# [30] = tested on: Escherichia coli DSM 1116
# [31] = tested on: Franconibacter helveticus DSM 18390
# [32] = tested on: Staphylococcus xylosus DSM 20287
structure (smiles),measurement,setting,value
CC(=O)[C@H](C)NC(=O)[C@H](C)NC(=O)[C@H](CC(N)=O)NC(=O)[C@H](CC(C)C)NC(=O)[C@H](Cc1ccc(O)cc1)NC(=O)CNC(=O)CNC(=O)CNC(=O)[C@H](Cc1cnc[nH]1)NC(=O)[C@H](Cc1cnc[nH]1)NC(=O)[C@@H](NC(=O)CNC(=O)[C@H](Cc1cnc[nH]1)NC(=O)[C@H](Cc1ccccc1)NC(=O)[C@H](CC(C)C)NC(=O)[C@H](CC(C)C)NC(=O)[C@H](CCCNC(=N)N)NC(=O)[C@H](Cc1ccccc1)NC(=O)[C@@H](N)Cc1ccccc1)C(C)C [FFRLLFHGVHHGGGYLNAA],MIC,[1],30.3 µM
same,MIC,[2],30.3 µM
same,MIC,Candida albicans C627,30.3 µM
same,MIC,[3],30.3 µM
same,MIC,Escherichia coli DC2,30.3 µM
same,MIC,Escherichia coli UB1005,30.3 µM
same,MIC,[4],30.3 µM
same,MIC,[5],30.3 µM
same,MIC,[6],30.3 µM
same,MIC,[7],30.3 µM
same,MIC,[8],30.3 µM
same,MIC,[9],30.3 µM
CC[C@H](C)[C@H](NC(=O)[C@H](CCCCN)NC(=O)[C@H](CCC(N)=O)NC(=O)[C@@H](NC(=O)[C@@H](NC(=O)[C@H](CCCN=C(N)N)NC(=O)[C@H](CCCCN)NC(=O)[C@@H](N)Cc1ccccc1)[C@@H](C)CC)C(C)C)C(=O)N[C@@H](CCCCN)C(=O)N[C@@H](CC(=O)O)C(=O)N[C@@H](Cc1ccccc1)C(=O)N[C@@H](CC(C)C)C(=O)N[C@@H](CCCN=C(N)N)C(N)=O [FKRIVQKIKDFLR],MIC,[10],≥ 118 µM
CC[C@H](C)[C@H](NC(=O)[C@H](CO)NC(=O)[C@H](CO)NC(=O)[C@H](C)NC(=O)[C@@H](NC(=O)[C@H](Cc1cnc[nH]1)NC(=O)CNC(=O)[C@H](C)NC(=O)[C@@H](NC(=O)[C@H](CCCCN)NC(=O)[C@H](CCCCN)NC(=O)[C@@H](NC(=O)[C@@H](NC(=O)[C@H](CC(=O)O)NC(=O)[C@H](Cc1ccccc1)NC(=O)[C@H](CC(C)C)NC(=O)CN)[C@@H](C)CC)C(C)C)[C@@H](C)CC)[C@@H](C)CC)C(N)=O [GLFDIVKKIAGHIASSI],MIC,Bacillus cereus,≥ 56.5 µM
same,MIC,Escherichia coli,> 56.5 µM
same,MIC,Leuconostoc lactis,3.39 µM
same,MIC,Listeria innocua,≥ 56.5 µM
same,MIC,Micrococcus luteus,≥ 56.5 µM
same,MIC,Pasteurella multocida,≥ 56.5 µM
same,MIC,Staphylococcus aureus,28.3 µM
same,MIC,[11],28.3 µM
same,MIC,Streptococcus uberis,28.3 µM
CC[C@H](C)[C@H](NC(=O)[C@H](CCCCN)NC(=O)[C@@H](N)CCCN=C(N)N)C(=O)N[C@@H](CCCCN)C(=O)N[C@@H](CCCN=C(N)N)C(=O)N[C@@H](Cc1ccc(O)cc1)C(=O)N[C@@H](CC(C)C)C(=O)N[C@@H](CCCN=C(N)N)C(=O)N[C@@H](CCCN=C(N)N)C(=O)N[C@@H](CCSC)C(=O)N[C@@H](Cc1c[nH]c2ccccc12)C(=O)O [RKIKRYLRRMW],MIC,[12],7.78 µM
same,MIC,[13],15.6 µM
same,MIC,[14],≥ 125 µM
same,MIC,[15],15.6 µM
same,MIC,[16],15.6 µM
CC(C)C[C@H](NC(=O)[C@H](CC(C)C)NC(=O)[C@H](Cc1c[nH]c2ccccc12)NC(=O)[C@H](Cc1c[nH]c2ccccc12)NC(=O)[C@H](Cc1c[nH]c2ccccc12)NC(=O)[C@@H](N)CCCN=C(N)N)C(N)=O [RWWWLL],MIC,[17],16 µM
same,MIC,Escherichia coli K88,16 µM
same,MIC,Escherichia coli K99,16 µM
same,MIC,Escherichia coli UB1005,16 µM
same,MIC,[18],≥ 64 µM
same,MIC,[19],≥ 64 µM
same,MIC,[20],≥ 64 µM
same,MIC,[21],≥ 64 µM
same,MIC,[22],≥ 64 µM
same,MIC,[23],> 64 µM
same,MIC,[24],≥ 64 µM
same,MIC,[25],32 µM
same,MIC,[26],16 µM
same,MIC,[27],8 µM
same,MIC,[28],8 µM
CC[C@H](C)[C@H](N)C(=O)N[C@@H](C)C(=O)N[C@@H](CCCCN)C(=O)N[C@H](C(=O)N[C@@H](C)C(=O)NCC(=O)N[C@@H](CCCCN)C(=O)N[C@H](C(=O)N[C@@H](C)C(=O)N[C@@H](CCCCN)C(=O)N[C@H](C(=O)N[C@@H](C)C(=O)NCC(=O)N[C@@H](CCCCN)C(=O)N[C@H](C(=O)N[C@@H](C)C(N)=O)[C@@H](C)CC)[C@@H](C)CC)[C@@H](C)CC)[C@@H](C)CC [IAKIAGKIAKIAGKIA],MIC,[29],28.9 µM
same,MIC,[30],≥ 163 µM
same,MIC,[31],≥ 116 µM
same,MIC,[32],≥ 163 µM
